Measurements: US20140323300A1, “HERBICIDAL COMPOUNDS” (SYNGENTA LIMITED, priority 2011, published 2014)

Columns and labels:
Type in all cases: in vivo
[1] = test system: Alopecurus myosuroides (ALOMY); test: Post-emergence glasshouse herbicide test; settings: post-emergence (sprayed after 8 days cultivation), 1000 g/h, evaluated after 13 days, five point scale
Protocol: (§1) Seeds of a variety of test species are sown in standard soil in pots (Alopecurus myosuroides (ALOMY), Setaria faberi (SETFA), Echinochloa crus-galli (ECHCG), Solanum nigrum (SOLNI), Amaranthus retoflexus (AMARE), Ipomoea hederacea (IPOHE)). After cultivation for one day (pre-emergence) or after 8 days cultivation (post-emergence) under controlled conditions in a glasshouse (at 24/16° C., day/night; 14 hours light; 65% humidity), the plants are sprayed with an aqueous spray solution derived from the formulation of the technical active ingredient in acetone/water (50:50) solution containing 0.5% Tween 20 (polyoxyethelyene sorbitan monolaurate, CAS RN 9005-64-5). Compounds are applied at 1000 g/h. The test plants are then grown in a glasshouse under controlled conditions in a glasshouse (at 24/16° C., day/night; 14 hours light; 65% humidity) and watered twice daily. After 13 days for pre and post-emergence, the test is evaluated for the percentage damage caused to the plant. The biological activities are shown in the following table on a five point scale (5=80-100%; 4=60-79%; 3=40-59%; 2=20-39%; 1=0-19%).

[2] = test system: Amaranthus retoflexus (AMARE); test: Post-emergence glasshouse herbicide test; settings: post-emergence (sprayed after 8 days cultivation), 1000 g/h, evaluated after 13 days, five point scale
Protocol: as §1

[3] = test system: Echinochloa crus-galli (ECHCG); test: Post-emergence glasshouse herbicide test; settings: post-emergence (sprayed after 8 days cultivation), 1000 g/h, evaluated after 13 days, five point scale
Protocol: as §1

[4] = test system: Ipomoea hederacea (IPOHE); test: Post-emergence glasshouse herbicide test; settings: post-emergence (sprayed after 8 days cultivation), 1000 g/h, evaluated after 13 days, five point scale
Protocol: as §1

Setaria faberi (SETFA) [5] = test: Post-emergence glasshouse herbicide test; settings: post-emergence (sprayed after 8 days cultivation), 1000 g/h, evaluated after 13 days, five point scale
Protocol: as §1

Solanum nigrum (SOLNI) [6] = test: Post-emergence glasshouse herbicide test; settings: post-emergence (sprayed after 8 days cultivation), 1000 g/h, evaluated after 13 days, five point scale
Protocol: as §1

[7] = test system: Alopecurus myosuroides (ALOMY); test: Pre-emergence glasshouse herbicide test; settings: pre-emergence (sprayed after one day cultivation), 1000 g/h, evaluated after 13 days, five point scale
Protocol: as §1

[8] = test system: Amaranthus retoflexus (AMARE); test: Pre-emergence glasshouse herbicide test; settings: pre-emergence (sprayed after one day cultivation), 1000 g/h, evaluated after 13 days, five point scale
Protocol: as §1

[9] = test system: Echinochloa crus-galli (ECHCG); test: Pre-emergence glasshouse herbicide test; settings: pre-emergence (sprayed after one day cultivation), 1000 g/h, evaluated after 13 days, five point scale
Protocol: as §1

[10] = test system: Ipomoea hederacea (IPOHE); test: Pre-emergence glasshouse herbicide test; settings: pre-emergence (sprayed after one day cultivation), 1000 g/h, evaluated after 13 days, five point scale
Protocol: as §1

Setaria faberi (SETFA) [11] = test: Pre-emergence glasshouse herbicide test; settings: pre-emergence (sprayed after one day cultivation), 1000 g/h, evaluated after 13 days, five point scale
Protocol: as §1

Solanum nigrum (SOLNI) [12] = test: Pre-emergence glasshouse herbicide test; settings: pre-emergence (sprayed after one day cultivation), 1000 g/h, evaluated after 13 days, five point scale
Protocol: as §1

Structure (SMILES) | percentage damage caused to the plant, POST Application ALOMY [1] | percentage damage caused to the plant, POST Application AMARE [2] | percentage damage caused to the plant, POST Application ECHCG [3] | percentage damage caused to the plant, POST Application IPOHE [4] | percentage damage caused to the plant, POST Application SETFA (Setaria faberi (SETFA) [5]) | percentage damage caused to the plant, POST Application SOLNI (Solanum nigrum (SOLNI) [6]) | percentage damage caused to the plant, PRE Application ALOMY [7] | percentage damage caused to the plant, PRE Application AMARE [8] | percentage damage caused to the plant, PRE Application ECHCG [9] | percentage damage caused to the plant, PRE Application IPOHE [10] | percentage damage caused to the plant, PRE Application SETFA (Setaria faberi (SETFA) [11]) | percentage damage caused to the plant, PRE Application SOLNI (Solanum nigrum (SOLNI) [12])
Cc1c(-n2ncc(S(C)(=O)=O)c(O)c2=O)ccc(S(C)(=O)=O)c1C1=NOCC1 [Compound 1.011, 2-[3-(4,5-dihydroisoxazol-3-yl)-2-methyl-4-methylsulfonyl-phenyl]-4-hydroxy-5-methylsulfonyl-pyridazin-3-one] | 5 (5=80-100%) | 5 (5=80-100%) | 5 (5=80-100%) | 5 (5=80-100%) | 5 (5=80-100%) | 5 (5=80-100%) | 5 (5=80-100%) | 5 (5=80-100%) | 5 (5=80-100%) | 5 (5=80-100%) | 5 (5=80-100%) | 5 (5=80-100%)
Cc1c(-n2ncc(Br)c(O)c2=O)ccc(S(C)(=O)=O)c1C1=NOCC1 [Compound 1.013] | 5 (5=80-100%) | 5 (5=80-100%) | 5 (5=80-100%) | 5 (5=80-100%) | 5 (5=80-100%) | 5 (5=80-100%) | 4 (4=60-79%) | 5 (5=80-100%) | 5 (5=80-100%) | 4 (4=60-79%) | 5 (5=80-100%) | 5 (5=80-100%)
COc1cnn(-c2ccc(C(F)(F)F)cc2C(F)(F)F)c(=O)c1O [Compound 1.014] | 1 (1=0-19%) | 5 (5=80-100%) | 1 (1=0-19%) | 3 (3=40-59%) | 4 (4=60-79%) | 5 (5=80-100%) | 1 (1=0-19%) | 1 (1=0-19%) | 1 (1=0-19%) | 1 (1=0-19%) | 1 (1=0-19%) | 1 (1=0-19%)
O=c1c(O)c(Cl)cnn1-c1ccc(C(F)(F)F)cc1C(F)(F)F [Compound 1.015] | 5 (5=80-100%) | 5 (5=80-100%) | 5 (5=80-100%) | 5 (5=80-100%) | 5 (5=80-100%) | 5 (5=80-100%) | 1 (1=0-19%) | 5 (5=80-100%) | 2 (2=20-39%) | 4 (4=60-79%) | 1 (1=0-19%) | 5 (5=80-100%)
Cc1cnn(-c2ccc(S(C)(=O)=O)c(C3=NOCC3)c2C)c(=O)c1O [Compound 1.016, 2-[3-(4,5-dihydroisoxazol-3-yl)-2-methyl-4-methylsulfonyl-phenyl]-4-hydroxy-5-methyl-pyridazin-3-one] | 5 (5=80-100%) | 5 (5=80-100%) | 5 (5=80-100%) | 5 (5=80-100%) | 5 (5=80-100%) | 5 (5=80-100%) | 5 (5=80-100%) | 5 (5=80-100%) | 5 (5=80-100%) | 4 (4=60-79%) | 5 (5=80-100%) | 5 (5=80-100%)
CS(=O)(=O)c1ccc(-n2ncc(Cl)c(O)c2=O)c(Cl)c1C1=NOCC1 [Compound 1.017] | 5 (5=80-100%) | 5 (5=80-100%) | 5 (5=80-100%) | 5 (5=80-100%) | 5 (5=80-100%) | 5 (5=80-100%) | 5 (5=80-100%) | 5 (5=80-100%) | 5 (5=80-100%) | 5 (5=80-100%) | 5 (5=80-100%) | 5 (5=80-100%)
CSc1cnn(-c2ccc(S(C)(=O)=O)c(C3=NOCC3)c2C)c(=O)c1O [Compound 1.018, 2-[3-(4,5-dihydroisoxazol-3-yl)-2-methyl-4-methylsulfonyl-phenyl]-4-hydroxy-5-methylsulfanyl-pyridazin-3-one] | 2 (2=20-39%) | 5 (5=80-100%) | 2 (2=20-39%) | 5 (5=80-100%) | 2 (2=20-39%) | 5 (5=80-100%) | 2 (2=20-39%) | 5 (5=80-100%) | 2 (2=20-39%) | 5 (5=80-100%) | 2 (2=20-39%) | 5 (5=80-100%)
Cc1nc(C(F)(F)F)ccc1-n1ncc(Cl)c(O)c1=O [Compound 1.019] | 5 (5=80-100%) | 5 (5=80-100%) | 5 (5=80-100%) | 5 (5=80-100%) | 5 (5=80-100%) | 5 (5=80-100%) | 5 (5=80-100%) | 5 (5=80-100%) | 5 (5=80-100%) | 5 (5=80-100%) | 5 (5=80-100%) | 5 (5=80-100%)
